Experimental data as given in article PMC10443802, “Targeting a xenobiotic transporter to ameliorate vincristine-induced sensory neuropathy” (JCI Insight, 2023).
“And” between values parts separate entries of the source, which are not always exact repeats. Equal entries are not always repeated.

Key:
OATP1B-type transporters = conditions: read-out: IC50, inhibition of OATP1B-mediated transport; cited from earlier work
OATP1B2 = experiment: Plasma level and DRG/plasma ratio of α-tocopherol in mice (biomarker of OATP1B2 function); assay type: in vivo, mouse; conditions: WT mice treated with the inhibitor; plasma
P388D1 = conditions: vincristine 1 μM, 30 min, nilotinib 10 μM
From the text: (A) Gene expression of the OATP1B2 gene in L1210 and P388D1 murine leukemia cells
normalized to total protein levels. All data presented represent the mean (bars) ± SEM (error bars).

hOATP1B3 = target: T1, hOATP1B3 (Homo sapiens, UniProt Q9NPD5); experiment: Nilotinib uptake in HEK293 cells overexpressing hOATP1B3; assay type: in vitro ADME; conditions: HEK293 cells overexpressing hOATP1B3 vs vector control
T1 sequence (Q9NPD5 1-702): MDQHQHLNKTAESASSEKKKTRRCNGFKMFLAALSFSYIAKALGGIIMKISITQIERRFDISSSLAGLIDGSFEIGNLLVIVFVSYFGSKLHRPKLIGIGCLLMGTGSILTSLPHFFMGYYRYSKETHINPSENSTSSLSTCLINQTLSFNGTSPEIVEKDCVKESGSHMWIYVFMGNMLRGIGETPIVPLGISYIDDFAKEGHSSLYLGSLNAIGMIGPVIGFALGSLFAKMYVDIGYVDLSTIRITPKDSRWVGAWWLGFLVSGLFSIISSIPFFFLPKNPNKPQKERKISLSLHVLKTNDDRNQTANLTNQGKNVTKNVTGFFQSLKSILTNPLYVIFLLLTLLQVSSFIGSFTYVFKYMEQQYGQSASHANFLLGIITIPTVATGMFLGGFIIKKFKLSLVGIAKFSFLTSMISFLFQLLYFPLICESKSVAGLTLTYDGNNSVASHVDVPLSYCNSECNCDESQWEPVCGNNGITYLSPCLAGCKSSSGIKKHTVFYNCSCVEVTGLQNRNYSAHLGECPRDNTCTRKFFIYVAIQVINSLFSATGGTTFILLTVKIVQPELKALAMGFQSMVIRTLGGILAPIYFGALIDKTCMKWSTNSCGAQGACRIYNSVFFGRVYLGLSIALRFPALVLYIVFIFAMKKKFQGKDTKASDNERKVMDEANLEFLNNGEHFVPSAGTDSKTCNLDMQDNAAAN

K562 = experiment: Cytotoxicity of vincristine with or without nilotinib, MTT assay, K562; assay type: cell-based; conditions: Homo sapiens, K562, K562 cells, vincristine + 1μM Nilotinib, individual replicates
HL-60 = experiment: Cytotoxicity of vincristine with or without nilotinib, MTT assay, HL-60; assay type: cell-based, human; conditions: individual replicates
hOATP5A1 = hOATP5A1 (Homo sapiens, UniProt Q9H2Y9); experiment: Vincristine uptake screen, HeLa cells overexpressing hOATP5A1; assay type: in vitro ADME
Chain of hOATP5A1 (Q9H2Y9 whole entry): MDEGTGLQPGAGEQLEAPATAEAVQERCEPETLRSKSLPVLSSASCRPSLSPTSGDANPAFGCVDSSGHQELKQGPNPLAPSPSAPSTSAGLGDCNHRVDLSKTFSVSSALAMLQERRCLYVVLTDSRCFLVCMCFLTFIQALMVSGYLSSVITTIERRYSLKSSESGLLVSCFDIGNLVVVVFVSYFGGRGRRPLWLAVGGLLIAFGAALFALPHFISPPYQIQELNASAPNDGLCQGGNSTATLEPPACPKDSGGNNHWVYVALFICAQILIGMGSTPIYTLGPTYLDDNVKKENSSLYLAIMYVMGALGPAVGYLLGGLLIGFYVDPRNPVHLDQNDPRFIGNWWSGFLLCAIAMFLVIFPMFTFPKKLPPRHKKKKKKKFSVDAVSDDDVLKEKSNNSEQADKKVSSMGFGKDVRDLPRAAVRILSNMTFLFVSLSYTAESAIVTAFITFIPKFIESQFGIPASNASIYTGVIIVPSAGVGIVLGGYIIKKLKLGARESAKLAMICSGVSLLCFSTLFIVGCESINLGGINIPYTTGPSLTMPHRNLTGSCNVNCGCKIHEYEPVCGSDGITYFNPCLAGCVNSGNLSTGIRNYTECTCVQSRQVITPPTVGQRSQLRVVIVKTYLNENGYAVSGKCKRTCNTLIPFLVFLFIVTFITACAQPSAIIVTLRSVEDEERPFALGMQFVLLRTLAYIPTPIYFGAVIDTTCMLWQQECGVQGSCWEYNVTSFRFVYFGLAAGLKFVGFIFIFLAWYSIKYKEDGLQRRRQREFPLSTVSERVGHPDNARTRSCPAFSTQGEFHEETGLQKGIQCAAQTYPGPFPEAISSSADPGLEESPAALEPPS
Method: Relative uptake is expressed as percentage change compared with empty vector controls (n = 4–14 per group). […] Human OATP1B1 and OATP1B3 transporter–overexpressed cells were used as positive controls; empty vector controls were used as the negative control. […] Mechanical allodynia (C), thermal hyperalgesia (D), and sciatic nerve maximal action potential amplitudes (E) are expressed as percentage change relative to baseline values (n = 6–8 per group). Statistical analysis was performed using a 2-way ANOVA with Bonferroni’s post hoc test. **P < 0.01, ***P < 0.001, ****P < 0.0001, compared with baseline values. […] Data are shown as mean ± SEM. […]
transfected with transporters of interest, including hOAT1, hOAT3, hOAT4, hOATP1A2, hOATP3A1, hOATP4A1, hOATP5A1, hOATP1C1, hOATP1B1, hOATP1B3, hOATP2B1, hOCT1, hOCT2, hOCTN1, hOCTN2, hASBT, hNTCP, hNPT1, hMATE1, hOSTα/β, hPEPT1, hPEPT2, rOatp1a1, rOatp1a4, rOatp1a5, rOatp1b2, rNtcp, rAsbt, rOat1, and rOct1. Cells were transfected with expression plasmid or vector control lacking any insert using Lipofectin reagent (Invitrogen). Sixteen hours thereafter, cells were washed with transport media (OPTIMEM, Invitrogen) and treated with radiolabeled drug. […] The cellular radioactivity was quantified by liquid scintillation counting as described above. […]

| SMILES | IC50 (OATP1B-type transporters) [nM] | Level of α-tocopherol (% of wild-type baseline), Plasma (OATP1B2) | Influence on uptake of vincristine (P388D1) | Nilotinib uptake (% of control) (hOATP1B3) | IC50 (K562) [nM] | IC50 (HL-60; HL-60 cells, vincristine alone) | IC50 (HL-60; Homo sapiens, HL-60, HL-60 cells, vincristine + 1μM Nilotinib) [nM] | Vincristine uptake (% of vector control) (hOATP5A1) |
| --- | --- | --- | --- | --- | --- | --- | --- | --- |
| Cc1cn(-c2cc(NC(=O)c3ccc(C)c(Nc4nccc(-c5cccnc5)n4)c3)cc(C(F)(F)F)c2)cn1 [Nilotinib, nilotinib] | ~1000 | 242.352% and 175.541% and 133.994% | did not influence the uptake of vincristine | 123.521 % of control and 118.661 % of control and 108.968 % of control |  |  |  |  |
| CC[C@]1(O)C[C@H]2CN(CCc3c([nH]c4ccccc34)[C@@](C(=O)OC)(c3cc4c(cc3OC)N(C=O)[C@H]3[C@@](O)(C(=O)OC)[C@H](OC(C)=O)[C@]5(CC)C=CCN6CC[C@]43[C@@H]65)C2)C1 [Vincristine, vincristine] |  |  |  |  | 17.5 | 9.13 nM and 3.89 nM and 6.71 nM and 7.31 nM and 6.48 nM and 6.07 nM and 6.3 nM and 8.17 nM and 5.71 nM | 6.98 | 109.00 % of vector control and 94.00 % of vector control and 90.00 % of vector control and 76.00 % of vector control and 77.00 % of vector control and 86.00 % of vector control and 80.00 % of vector control and 85.00 % of vector control |
